Test results: US6441036B1 (priority 1998, dated 2002)

Legend:
[1] = 28 days toxicity study in dogs (GLP); type: in vivo
Description: A 28 days toxicity study in dogs according to GLP guide-lines has been performed by Corning Hazleton (Europe), England. […] Some lipid related parameters were lowered in the animals given high dosages. This is consistent with the pharmacological activity of TTA.

Salmonella typhimurium = test: Test for mutagenic activity in Salmonella typhimurium strains; type: cell-based; details: 3-1000 mg/plate (TTA), 2-5000 mg/plate (TSA)
Description: (§1) Tests for mutagenic activity have been performed by Covance Laboratories Limited, England. […] Furthermore, TTA was not mutagenic when tested in mouse lymphoma cells […] L5178Y.

Escherichia coli = test: Test for mutagenic activity in Escherichia coli strains; type: cell-based; details: 3-1000 mg/plate (TTA), 2-5000 mg/plate (TSA)
Description: as §1

[2] = system: mouse lymphoma cells, L5178Y; test: Mutagenicity test in mouse lymphoma cells L5178Y; type: cell-based; details: concentration 2.5-50 mg/ml
Description: as §1

[3] = High fat diet feeding, adipose tissue weights (Example 5); type: in vivo, Wistar Charles River rats; details: high fat diet + 0.4% TTA, three weeks; means ± SEM
Experimental: Male Wistar rats Charles River rats weighing 280-358 g were purchases from AnLab Ltd. (Prague, Czech Repubic) and housed in wire-mesh cages in a temperature (22±1° C.) and light-controlled (light from 7:00 a.m. to 7.00 p.m.) room. They were given free access to chow and water. Three rats were housed per cage. Weight gain and food intake were recorded daily.
High fat (HF): 1.9% gelatin, 5.7% wheat bran, 7.7% vitamins and minerals, 25.4% corn starch, 25.7% casein, 26.8% beef tallow and 7.1 % sunflower oil.
HF+TTA: Same +0.4% TTA dissolved in the beef tallow.
Male Wistar Charles River rats (280-360 g) were fed 3 different diets (see methods) for 3 weeks ad libitum. Afterwards, they were killed by decapitation, liver and epididymal adipose tissue pads were dissected out and weighed.

[4] = Intravenous glucose tolerance test (IVGTT); type: in vivo; details: 5 weeks old Zucker (fa/fa) rats
Experimental: Male Zucker (fa/fa) rats (5 weeks old) were anaesthetised after a 5-hours fast, by intraperitoneal injection of sodium pentobarbital (50 mg/kg). The rats were injected with glucose (0.55 g/kg) in the saphenous vein and blood samples were collected from the tail vein in heparinized tubes at time 0, 5, 10, 15, 20 and 30 minutes after the glucose load. Samples were kept on ice, centrifuged and plasma was stored at −20° C. until analysis.

[5] = Plasma lipids after feeding moderate doses to animals; type: in vivo, rats, mice, rabbits and dogs; details: within days of treatment

In the case of Tetradecylthioacetic acid [TTA], the Lipid related parameters ([1]; animals given high dosages) is reported as “lowered”, the Body weight ([1]; dose level of 500 mg/kg/day) is reported as “body weight loss” and the Evidence of toxicity ([1]; dose levels of 50 or 500 mg/day/kg, 28 days) is reported as “no evidence of toxicity”. For the same substance, the Tolerability ([1]; oral administration, dose levels up to 500 mg/kg/day, 28 days) was “generally well tolerated”, the Induction of mutations (Salmonella typhimurium) was “did not induce mutations” and the Induction of mutations (Escherichia coli) was “did not induce mutations”. The Mutagenicity [2] was “not mutagenic”, the Epididymal adipose tissue [3] was 3.1 ± 0.2 g and the Retroperitoneal adipose tissue [3] was 2.7 ± 0.2 g. For the same substance, the “IVGTT glucose curves (FIG. 7B)” value ([4]; TTA treated versus control) was “normal and comparable”, the “Plasma insulin response to glucose (FIG. 7A)” value ([4]; glucose 0.55 g/kg i.v.) was “significantly lower” and the “Plasma cholesterol and triacylglycerol levels” value [5] was “decreased”.
